According to patent US4699925A, “Biphenylylpropionic acid derivative and pharmaceutical composition containing the same” (priority 1982, dated 1987):
Like-named read-outs stand apart in the source and are kept apart here.

Key:
[1] = system: carrageenan-induced edema; test: Inhibitory effect on carrageenan-induced edema; type: in vivo, Wistar male rats; details: Rattus norvegicus
Protocol: Five Wistar male rats weighing about 150 g. were used as one group. A 1% dispersion of carrageenan was injected intracutaneously into the foot pad of the right hind foot in a dose of 0.1 ml./rat. The compounds to be tested were orally administered to the rats fasted for 15 hours one hour before the carrageenan injection, or intravenously administered 2 hours […] the carrageenan injection. The volume of the foot subjected to the injection was measured by a mercury plethysmography 3 hours after the carrageenan injection on the test by oral route or 2 hours after the carrageenan injection on the test by intravenous route, and the carrageenan-induced edema was estimated from the obtained measurements.

[2] = Gastric ulceration (gastric irritation test); design: species or system Wistar male rats; details: rat, in vivo, po, read-out: UD50
Protocol: Five Wistar male rats weighing about 150 g. were used as one group. The rats were fasted for 24 hours before the test.
Six hours after orally administration of the present compounds to be tested, there was observed an existence of gastric ulcer by the method of Okabe et al (Ohyoyakuri, 16, 241 to 247 (1978)). The UD50 values were calculated from the ulcer incidence of gastric ulcer by the method of Litchfield-Wilcoxon.

[3] = Hydrolysis of FP derivatives in human plasma; type: in vitro ADME; details: human, plasma, 37° C., one hour, read-out: Hydrolyzing rate
Protocol: (§1) Each reaction mixture was incubated at 37° C. for one hour.
(§2) The free FP formed by esterase in the plasma was extracted with benzene. After treating the extract with N,O-bis(trimethylsilylacetamide) for trimethylsilylation, the obtained material was determined by gas-liquid chromatography.

[4] = Acute toxicity; design: species or system male SLC-ddY mice; details: mouse, in vivo, po
[5] = Hydrolysis of FP derivatives in rat plasma; type: in vitro ADME; details: Table 4; rat plasma (Compound Nos. 8 to 13), 37° C., one hour; read-out: Hydrolyzing rate
Protocol: as §1, §2

[6] = Table 1, orally in rats, 50% ulcerative dose
[7] = Table 3, rats, orally, six hours after administration
[8] = Table 4, human plasma (Compound Nos. 1 to 7)
[9] = Table 1, orally in mice, 50% lethal dose
[10] = Table 5, mice, orally, observation for 2 weeks

CC(=O)OCOC(=O)C(C)c1ccc(-c2ccccc2)c(F)c1 (stereo not shown) [Compound No. 1, acetoxymethyl 2-(2-fluoro-4-biphenylyl)propionate]
ED50 ([1]; iv, 2 h, read-out: ED50 i.v.): 0.08 mg/kg | ED50 ([1]; po, 1 h, read-out: ED50 p.o.): 0.5 mg/kg | ED50 ([1]; po, read-out: ED50 p.o.): 0.5 mg/kg | TD50 at 6 h [2, 6]: 3.7 mg/kg | TD50 at 6 h [2, 7]: 3.6 mg/kg | metabolised at 1 h ([3]; Table 1, human plasma): 97.5% | metabolised at 1 h [3, 8]: 97.5% | LD50 at 336 h [4, 9]: 880 mg/kg | LD50 at 336 h [4, 10]: 880 mg/kg

CCC(=O)OCOC(=O)C(C)c1ccc(-c2ccccc2)c(F)c1 (stereo not shown) [Compound No. 2, propionyloxymethyl 2-(2-fluoro-4-biphenylyl)propionate]
ED50 ([1]; iv, 2 h, read-out: ED50 i.v.): 0.07 mg/kg | ED50 ([1]; po, 1 h, read-out: ED50 p.o.): 0.5 mg/kg | ED50 ([1]; po, read-out: ED50 p.o.): 0.5 mg/kg | TD50 at 6 h [2, 6]: 2.5 mg/kg | TD50 at 6 h [2, 7]: 2.5 mg/kg | metabolised at 1 h ([3]; Table 1, human plasma): 94.6% | metabolised at 1 h [3, 8]: 94.6% | LD50 at 336 h [4, 9]: 750 mg/kg | LD50 at 336 h [4, 10]: 750 mg/kg

CC(C)C(=O)OCOC(=O)C(C)c1ccc(-c2ccccc2)c(F)c1 (stereo not shown) [Compound No. 3, isobutyryloxymethyl 2-(2-fluoro-4-biphenylyl)propionate]
ED50 ([1]; iv, 2 h, read-out: ED50 i.v.): 0.1 mg/kg | ED50 ([1]; po, 1 h, read-out: ED50 p.o.): 0.6 mg/kg | ED50 ([1]; po, read-out: ED50 p.o.): 0.6 mg/kg | TD50 at 6 h [2, 6]: 2 mg/kg | TD50 at 6 h [2, 7]: 2 mg/kg | metabolised at 1 h ([3]; Table 1, human plasma): 86.3% | metabolised at 1 h [3, 8]: 86.3% | LD50 at 336 h [4, 9]: 600 mg/kg | LD50 at 336 h [4, 10]: 600 mg/kg

C/C=C/C(=O)OCOC(=O)C(C)c1ccc(-c2ccccc2)c(F)c1 (stereo not shown) [Compound No. 4, crotonoyloxymethyl 2-(2-fluoro-4-biphenylyl)propionate]
ED50 ([1]; iv, 2 h, read-out: ED50 i.v.): 0.08 mg/kg | ED50 ([1]; po, 1 h, read-out: ED50 p.o.): 0.6 mg/kg | ED50 ([1]; po, read-out: ED50 p.o.): 0.6 mg/kg | TD50 at 6 h [2, 6]: 2 mg/kg | TD50 at 6 h [2, 7]: 2 mg/kg | metabolised at 1 h ([3]; Table 1, human plasma): 81.4% | metabolised at 1 h [3, 8]: 81.4% | LD50 at 336 h [4, 9]: 600 mg/kg | LD50 at 336 h [4, 10]: 600 mg/kg

CC(C)=CC(=O)OCOC(=O)C(C)c1ccc(-c2ccccc2)c(F)c1 (stereo not shown) [Compound No. 5, 3,3-dimethylacryloyloxymethyl 2-(2-fluoro-4-biphenylyl)propionate]
ED50 ([1]; iv, 2 h, read-out: ED50 i.v.): 0.06 mg/kg | ED50 ([1]; po, 1 h, read-out: ED50 p.o.): 0.5 mg/kg | ED50 ([1]; po, read-out: ED50 p.o.): 0.5 mg/kg | TD50 at 6 h [2, 6]: 2 mg/kg | TD50 at 6 h [2, 7]: 2 mg/kg | metabolised at 1 h ([3]; Table 1, human plasma): 64.8% | metabolised at 1 h [3, 8]: 115% | LD50 at 336 h [4, 9]: 900 mg/kg | LD50 at 336 h [4, 10]: 900 mg/kg

CCCCCCCCCCCCCCCC(=O)OCOC(=O)C(C)c1ccc(-c2ccccc2)c(F)c1 (stereo not shown) [Compound No. 6, palmitoyloxymethyl 2-(2-fluoro-4-biphenylyl)propionate]
ED50 ([1]; iv, 2 h, read-out: ED50 i.v.): 0.5 mg/kg | ED50 ([1]; po, 1 h, read-out: ED50 p.o.): 1.5 mg/kg | ED50 ([1]; po, read-out: ED50 p.o.): 1.5 mg/kg | TD50 at 6 h [2, 6]: 5 mg/kg | TD50 at 6 h [2, 7]: 5 mg/kg | metabolised at 1 h ([3]; Table 1, human plasma): 3.8% | metabolised at 1 h [3, 8]: 3.8% | LD50 at 336 h [4, 9]: 1000 mg/kg | LD50 at 336 h [4, 10]: > 1000 mg/kg

CC(C(=O)OCOC(=O)C(C)(C)C)c1ccc(-c2ccccc2)c(F)c1 (stereo not shown) [Compound No. 7, pivaloyloxymethyl 2-(2-fluoro-4-biphenylyl)propionate]
ED50 ([1]; iv, 2 h, read-out: ED50 i.v.): 0.1 mg/kg | ED50 ([1]; po, 1 h, read-out: ED50 p.o.): 0.6 mg/kg | ED50 ([1]; po, read-out: ED50 p.o.): 0.6 mg/kg | TD50 at 6 h [2, 6]: 2.5 mg/kg | TD50 at 6 h [2, 7]: 2.5 mg/kg | metabolised at 1 h ([3]; Table 1, human plasma): 70.3% | metabolised at 1 h [3, 8]: 70.3% | LD50 at 336 h [4, 9]: 840 mg/kg | LD50 at 336 h [4, 10]: 840 mg/kg

CC(=O)OCCOC(=O)C(C)c1ccc(-c2ccccc2)c(F)c1 (stereo not shown) [Compound No. 8, 2-(acetoxy)ethyl 2-(2-fluoro-4-biphenylyl)propionate]
ED50 ([1]; po, 1 h, read-out: ED50 p.o.): 0.7 mg/kg | ED50 ([1]; po, read-out: ED50 p.o.): 0.7 mg/kg | TD50 at 6 h [2, 6]: 2 mg/kg | TD50 at 6 h [2, 7]: 2 mg/kg | metabolised at 1 h [5]: 101% | LD50 at 336 h [4, 9]: 650 mg/kg | LD50 at 336 h [4, 10]: 650 mg/kg
